Source: patent US20240398771A1, “TREATMENT OF SCLERODERMA AND RAYNAUD'S SYNDROME” (Aisa Pharma, Inc., priority 2023, published 2024)

Test system: participants with SSc-RP
Experiment: Frequency of weekly symptomatic RP attacks (patient diary), Phase 2a Part A
Type: in vivo, human
Procedure: Part A—Double-blind, Placebo-controlled, Parallel-group, Dose selection, will assess the safety and efficacy of two doses of cilnidipine (10 mg and 20 mg), alone and in combination with tadalafil. A total of 36 participants will be randomized to one of six pre-specified treatment arms. See Example 3 for data obtained in this phase of the study thus far, on 11 participants.
Please refer to FIG. 1 for treatment arms in Part A of the study. Dosing lasted or will last for 12 (±2) days in which participants self-administered or will self-administer daily doses of assigned treatment in the morning. Each participant took or will take one capsule and one tablet to blind the active therapy being received.
The relevant metrics measured by this tool daily are: • Study medication • SSc-RP symptoms (Reporting an attack including duration of attack) • Severity of the attack considering all symptoms of the attack e.g. tingling, numbness, pain, color changes (VAS 0-10 cm scale) • Participant's location at the time of the attack (inside home/outside home) • Selecting symptoms experienced during the attack (tingling, numbness, pain, color changes, other) • Pain rating during the attack (11-point Likert scale) • The RCS based on how much difficulty participants had with Raynaud's today, how many attacks the participant had, and how long they lasted. Participants will also be asked to consider how much pain, numbness, or other symptoms the Raynaud's caused in fingers (including painful sores), and how much the Raynaud's alone affected the use of hands today (VAS 0-10 cm scale).
Percent change from baseline evaluation for frequency of weekly RP attacks were or will be used as the primary efficacy variable. The sponsor-developed participant-informed diary will be used to record data. Frequency of weekly RP attacks is defined as the total number of RP attacks divided by the number of days with available diary data within the last 7 days of each dosing period then multiplied by 7. Total number of RP attacks during the last 7 days of screening period divided by the number of days with available data then multiplied by 7 will be used as baseline for the analysis of all periods.
Percentage change={(weekly RP attacks for the last 7 days of each dosing period−Baseline weekly RP attacks)/Baseline weekly RP attacks}*100%.
Absolute change=weekly RP attacks for the last 7 days of each dosing period−Baseline weekly RP attacks
Percent change from baseline evaluation for frequency of weekly RP attacks was and will be the primary efficacy endpoint. Frequency of weekly RP attacks is defined as the total number of RP attacks divided by the number of days with available diary data within the last 7 days of each dosing period then multiplied by 7. Total number of RP attacks during the last 7 days of screening period divided by the number of days with available data then multiplied by 7 will be used as baseline for the analysis of all periods.
The following data was actually obtained in accordance with the protocol and plan delineated in Examples 1 and 2. The accompanying data involved 11 patients out of the planned 76 patient study. The study was done in patients with scleroderma (systemic sclerosis) who had relatively frequent Raynaud symptoms as they needed to average at least one attack per day during a screening period of up to two weeks. In this first phase of this double-blind placebo-controlled, prospective randomized study, patients were treated in parallel and after meeting study criteria were randomized to receive either placebo, cilnidipine 10 mg daily, cilnidipine 20 mg daily, tadalafil 5 mg daily, cilnidipine 10 mg plus 5 mg of tadalafil, or cilnidipine 20 mg plus 5 mg of tadalafil.

[1] = Table A-1, ITT Part A, last 7 days of dosing period
[2] = Table A-1, ITT Part A, last 7 days of dosing vs last 7 days of screening
[3] = Table A-2, excluding outliers, ITT Part A
[4] = Table A-2, excluding outliers, ITT Part A, last 7 days of dosing period
[5] = Table A-3 by baseline RCS, second sub-table (heading not given; RCS >5.0), ITT Part A
[6] = Table A-1, ITT Part A, last 7 days of dosing period, listed as Cilnidipine 10 mg
[7] = Table A-1, ITT Part A, last 7 days of dosing period, listed as Cilnidipine 20 mg
[8] = Table A-1, ITT Part A, last 7 days of dosing period, listed as Pooled Cilnidipine
[9] = Table A-1, ITT Part A, last 7 days of dosing vs last 7 days of screening, listed as Cilnidipine 10 mg
[10] = Table A-1, ITT Part A, last 7 days of dosing vs last 7 days of screening, listed as Cilnidipine 20 mg
[11] = Table A-1, ITT Part A, last 7 days of dosing vs last 7 days of screening, listed as Pooled Cilnidipine
[12] = Table A-2, excluding outliers, ITT Part A, last 7 days of dosing period, listed as Cilnidipine 10 mg
[13] = Table A-2, excluding outliers, ITT Part A, last 7 days of dosing period, listed as Cilnidipine 20 mg
[14] = Table A-2, excluding outliers, ITT Part A, last 7 days of dosing period, listed as Pooled Cilnidipine
[15] = Table A-3 by baseline RCS, first sub-table (RCS <5.0), ITT Part A, listed as Cilnidipine 10 mg
[16] = Table A-3 by baseline RCS, first sub-table (RCS <5.0), ITT Part A, listed as Cilnidipine 20 mg
[17] = Table A-3 by baseline RCS, first sub-table (RCS <5.0), ITT Part A, listed as Pooled Cilnidipine

## CN1CC(=O)N2[C@H](c3ccc4c(c3)OCO4)c3[nH]c4ccccc4c3C[C@@H]2C1=O [Tadalafil]
[1]
  Weekly Symptomatic RP Attacks, Min: 7.0
  Weekly Symptomatic RP Attacks, Q1: 7.00
[2]
  Weekly Symptomatic RP Attacks Change from Baseline, Mean (SD): 4.50 (2.121)
  Weekly Symptomatic RP Attacks Change from Baseline, Median: 4.50
  Weekly Symptomatic RP Attacks Change from Baseline, Min: 3.0
  Weekly Symptomatic RP Attacks Change from Baseline, Q1: 3.00
  Weekly Symptomatic RP Attacks Percent Change from Baseline, Max: 75.0%
  Weekly Symptomatic RP Attacks Percent Change from Baseline, Q3: 75.00%
[3]
  Weekly Symptomatic RP Attacks Change from Baseline, Max: 6.0, 6.0
  Weekly Symptomatic RP Attacks Change from Baseline, Q3: 6.00, 6.00
  Weekly Symptomatic RP Attacks Percent Change from Baseline, Min: 50.0, 50.0%
  Weekly Symptomatic RP Attacks Percent Change from Baseline, Q1: 50.00, 50.00%
[4]
  Weekly Symptomatic RP Attacks, Max: 18.0, 18.0
  Weekly Symptomatic RP Attacks, Q3: 18.00, 18.00
[5]
  Weekly Symptomatic RP Attacks Change from Baseline, Max: 6.0
  Weekly Symptomatic RP Attacks Change from Baseline, Min: 3.0
  Weekly Symptomatic RP Attacks Change from Baseline, Q1: 3.00
  Weekly Symptomatic RP Attacks Change from Baseline, Q3: 6.00
  Weekly Symptomatic RP Attacks Percent Change from Baseline, Max: 75.0%
  Weekly Symptomatic RP Attacks Percent Change from Baseline, Min: 50.0%
  Weekly Symptomatic RP Attacks Percent Change from Baseline, Q1: 50.00%
  Weekly Symptomatic RP Attacks Percent Change from Baseline, Q3: 75.00%
  Weekly Symptomatic RP Attacks, Max: 18.0
  Weekly Symptomatic RP Attacks, Min: 7.0
  Weekly Symptomatic RP Attacks, Q1: 7.00
  Weekly Symptomatic RP Attacks, Q3: 18.00

## COCCOC(=O)C1=C(C)NC(C)=C(C(=O)OC/C=C/c2ccccc2)C1c1cccc([N+](=O)[O-])c1 (centres unmarked) [Cilnidipine, 1,4-dihydro-2,6-dimethyl,4-(3-nitrophenyl)-3,5-pyridinedicarboxylic acid 2-methoxyethyl (2 E)-3-phenyl-2-propenyl ester]
Example 3, first 11 patients of Part A, vs baseline
  weekly frequency of Raynaud attacks, direction of change: decrease
[6]
  Weekly Symptomatic RP Attacks, Max: 14.0, 14.0
  Weekly Symptomatic RP Attacks, Mean (SD): 14.00
  Weekly Symptomatic RP Attacks, Min: 14.0, 14.0
  Weekly Symptomatic RP Attacks, Q1: 14.00, 14.00
  Weekly Symptomatic RP Attacks, Q3: 14.00, 14.00
[7]
  Weekly Symptomatic RP Attacks, Max: 11.0
  Weekly Symptomatic RP Attacks, Mean (SD): 8.00 (4.243)
  Weekly Symptomatic RP Attacks, Min: 5.0
  Weekly Symptomatic RP Attacks, Q1: 5.00
  Weekly Symptomatic RP Attacks, Q3: 11.00
[8]
  Weekly Symptomatic RP Attacks, Max: 14.0
  Weekly Symptomatic RP Attacks, Mean (SD): 10.00 (4.583)
  Weekly Symptomatic RP Attacks, Min: 5.0
  Weekly Symptomatic RP Attacks, Q1: 5.00
  Weekly Symptomatic RP Attacks, Q3: 14.00
[2]
  Weekly Symptomatic RP Attacks Percent Change from Baseline, Min: −33.3, −33.3%
[9]
  Weekly Symptomatic RP Attacks Change from Baseline, Max: −7.0, −7.0
  Weekly Symptomatic RP Attacks Change from Baseline, Mean (SD): −7.00
  Weekly Symptomatic RP Attacks Change from Baseline, Min: −7.0, −7.0
  Weekly Symptomatic RP Attacks Change from Baseline, Q1: −7.00, −7.00
  Weekly Symptomatic RP Attacks Change from Baseline, Q3: −7.00, −7.00
  Weekly Symptomatic RP Attacks Percent Change from Baseline, Max: −33.3, −33.3%
[10]
  Weekly Symptomatic RP Attacks Change from Baseline, Max: −2.0
  Weekly Symptomatic RP Attacks Change from Baseline, Mean (SD): −4.50 (3.536)
  Weekly Symptomatic RP Attacks Change from Baseline, Min: −7.0
  Weekly Symptomatic RP Attacks Change from Baseline, Q1: −7.00
  Weekly Symptomatic RP Attacks Change from Baseline, Q3: −2.00
  Weekly Symptomatic RP Attacks Percent Change from Baseline, Max: −28.6%
  Weekly Symptomatic RP Attacks Percent Change from Baseline, Min: −38.9%
[11]
  Weekly Symptomatic RP Attacks Change from Baseline, Max: −2.0
  Weekly Symptomatic RP Attacks Change from Baseline, Min: −7.0
  Weekly Symptomatic RP Attacks Change from Baseline, Q1: −7.00
  Weekly Symptomatic RP Attacks Change from Baseline, Q3: −2.00
  Weekly Symptomatic RP Attacks Percent Change from Baseline, Max: −28.6%
  Weekly Symptomatic RP Attacks Percent Change from Baseline, Min: −38.9%
  Weekly Symptomatic RP Attacks Percent Change from Baseline, Q3: −28.57%
[12]
  Weekly Symptomatic RP Attacks, Max: 14.0, 14.0
  Weekly Symptomatic RP Attacks, Mean (SD): 14.00
  Weekly Symptomatic RP Attacks, Min: 14.0, 14.0
  Weekly Symptomatic RP Attacks, Q1: 14.00, 14.00
  Weekly Symptomatic RP Attacks, Q3: 14.00, 14.00
[13]
  Weekly Symptomatic RP Attacks, Max: 11.0
  Weekly Symptomatic RP Attacks, Mean (SD): 8.00 (4.243)
  Weekly Symptomatic RP Attacks, Min: 5.0
  Weekly Symptomatic RP Attacks, Q1: 5.00
  Weekly Symptomatic RP Attacks, Q3: 11.00
[14]
  Weekly Symptomatic RP Attacks, Max: 14.0
  Weekly Symptomatic RP Attacks, Mean (SD): 10.00 (4.583)
  Weekly Symptomatic RP Attacks, Min: 5.0
  Weekly Symptomatic RP Attacks, Q1: 5.00
  Weekly Symptomatic RP Attacks, Q3: 14.00
Table A-3 by baseline RCS, first sub-table (RCS <5.0), ITT Part A
  Weekly Symptomatic RP Attacks Percent Change from Baseline, Min: −33.3, −33.3%
[15]
  Weekly Symptomatic RP Attacks Change from Baseline, Max: −7.0, −7.0
  Weekly Symptomatic RP Attacks Change from Baseline, Min: −7.0, −7.0
  Weekly Symptomatic RP Attacks Change from Baseline, Q1: −7.00, −7.00
  Weekly Symptomatic RP Attacks Change from Baseline, Q3: −7.00, −7.00
  Weekly Symptomatic RP Attacks Percent Change from Baseline, Max: −33.3, −33.3%
[16]
  Weekly Symptomatic RP Attacks Change from Baseline, Max: −2.0
  Weekly Symptomatic RP Attacks Change from Baseline, Min: −7.0
  Weekly Symptomatic RP Attacks Change from Baseline, Q1: −7.00
  Weekly Symptomatic RP Attacks Change from Baseline, Q3: −2.00
  Weekly Symptomatic RP Attacks Percent Change from Baseline, Max: −28.6%
  Weekly Symptomatic RP Attacks Percent Change from Baseline, Min: −38.9%
  Weekly Symptomatic RP Attacks Percent Change from Baseline, Q3: −28.57%
[17]
  Weekly Symptomatic RP Attacks Change from Baseline, Max: −2.0
  Weekly Symptomatic RP Attacks Change from Baseline, Min: −7.0
  Weekly Symptomatic RP Attacks Change from Baseline, Q1: −7.00
  Weekly Symptomatic RP Attacks Change from Baseline, Q3: −2.00
  Weekly Symptomatic RP Attacks Percent Change from Baseline, Max: −28.6%
  Weekly Symptomatic RP Attacks Percent Change from Baseline, Min: −38.9%
  Weekly Symptomatic RP Attacks Percent Change from Baseline, Q3: −28.57%
